Laboratory results taken from PubChem BioAssay (NCI).
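Growth conditions: 96-well plates. Treatment: test compound, 48 hours, 5 concentrations. Analysis: linear interpolation between bracketing concentrations; unreached endpoints set to highest concentration. Here, GI50 denotes the concentration required for 50% inhibition of growth. The concentration for full growth arrest is given as TGI.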

Key:
Experiment in all cases: growth of human tumour cells (NCI), 48 h
SK-OV-3 ovarian = tested on: SK-OV-3 ovarian
M14 melanoma = tested on: M14 melanoma
OVCAR-4 ovarian = tested on: OVCAR-4 ovarian
ACHN renal = tested on: ACHN renal
UACC-62 melanoma = tested on: UACC-62 melanoma
SR leukemia = tested on: SR leukemia
CAKI-1 renal = tested on: CAKI-1 renal
RPMI-8226 leukemia = tested on: RPMI-8226 leukemia
TK-10 renal = tested on: TK-10 renal
SNB-75 CNS = tested on: SNB-75 CNS

Row | SMILES | TGI (SK-OV-3 ovarian) [µM] | TGI (M14 melanoma) [µM] | TGI (OVCAR-4 ovarian) [µM] | TGI (ACHN renal) [µM] | TGI (UACC-62 melanoma) [µM] | TGI (SR leukemia) [µM] | TGI (CAKI-1 renal) [µM] | TGI (RPMI-8226 leukemia) [µM] | TGI (TK-10 renal) [µM] | TGI (SNB-75 CNS) [µM] | GI50 (SNB-75 CNS) [µM] | GI50 (SK-OV-3 ovarian) [µM] | GI50 (M14 melanoma) [µM] | GI50 (ACHN renal) [µM] | GI50 (UACC-62 melanoma) [µM] | GI50 (SR leukemia) [µM] | GI50 (CAKI-1 renal) [µM] | GI50 (RPMI-8226 leukemia) [µM] | GI50 (TK-10 renal) [µM] | GI50 (OVCAR-4 ovarian) [µM]
1 | CCCCCCCCCCCCCCCc1nc(SCC(=O)O)n[nH]1 | > 100 | 42.4 | > 100 | > 100 | > 100 | > 100 | > 100 | > 100 | > 100 | – | – | – | – | – | – | – | – | – | – | –
2 | Cn1c(=O)c2nc3sc4ccccc4c(=N)n3c2n(C)c1=O | > 100 | – | > 100 | > 100 | > 100 | > 100 | > 100 | – | > 100 | – | – | – | – | – | – | – | – | – | – | –
3 | O=C1OC(/C=C/c2ccccc2)C(=O)C1=O (configuration not stated) | > 100 | > 100 | > 100 | > 100 | > 100 | – | – | > 100 | > 100 | > 100 | – | – | – | – | – | – | – | – | – | –
4 | COc1cc(/C=C/C(=O)c2ccc(SC)cc2)cc(OC)c1OC | 30.6 | 22.4 | – | 19.5 | 13.5 | > 100 | 32.2 | > 100 | 33.5 | 20.5 | 6.08 | 15.8 | 10.5 | 6.98 | 3.46 | 3.56 | 16.1 | 3.9 | 18 | –
5 | CC12CCC(C)(c3cc(O)c(O)cc31)c1cc(O)c(O)cc12 | 36.7 | 36 | 28.7 | 32.5 | 36.2 | – | 23.6 | 30 | 40.3 | 52.5 | – | – | – | – | – | – | – | – | – | –
6 | O=c1c2ccc(Br)cc2nc(-c2ccccc2)n1NC1OC(CO)C(O)C(O)C1O (configuration not stated) | > 100 | > 100 | > 100 | > 100 | > 100 | – | > 100 | > 100 | > 100 | > 100 | – | – | – | – | – | – | – | – | – | –
7 | CCOC(=O)/C(C#N)=C/c1[nH]c(C)c(C)c1C | > 100 | > 100 | > 100 | – | > 100 | – | > 100 | > 100 | > 100 | > 100 | – | – | – | – | – | – | – | – | – | –
8 | O=C(NCCOCCO)c1ccc(O)cc1 | > 100 | > 100 | – | > 100 | > 100 | – | – | > 100 | > 100 | – | – | – | – | – | – | – | – | – | – | –
9 | COc1ccc(/C=N/C2=C(C#N)C(c3ccccc3)c3ccc4ccccc4c3O2)cc1 (configuration not stated) | > 100 | > 100 | > 100 | > 100 | > 100 | > 75.8 | > 61.8 | > 38 | > 100 | – | – | 0.539 | 0.336 | 0.69 | 0.491 | 0.304 | 0.224 | 0.383 | 26 | 0.645
10 | COc1cc(Cl)c(C)cc1NC(=O)c1cc2ccccc2cc1O | – | 9.53 | 18.5 | 11.4 | 8.14 | 11.9 | 10.6 | 6.17 | 7.26 | 9.37 | 2.4 | – | 2.85 | 2.67 | 1.49 | 2.79 | 1.65 | 1.46 | 2.92 | 3.28
11 | CCC1(O)CC(c2ccccc2)N(C)C(c2ccccc2)C1 (configuration not stated) | > 100 | > 100 | > 100 | > 100 | > 100 | – | > 100 | – | > 100 | > 100 | – | – | – | – | – | – | – | – | – | –
12 | COc1cc(C2C(C(=O)Nc3ccccc3C)=C(C)NC(C)=C2C(=O)Nc2ccccc2C)ccc1O | > 100 | > 100 | > 100 | > 100 | > 100 | – | > 100 | > 100 | > 100 | > 100 | – | – | – | – | – | – | – | – | – | –
13 | C[C@]12CC[C@H](O)CC1CCC[C@@H]2O (some centres not stated) | > 100 | > 100 | > 100 | – | > 100 | – | > 100 | > 100 | > 100 | > 100 | – | – | – | – | – | – | – | – | – | –
14 | O=C(O)c1cccc(F)c1C(=O)c1ccc2ccccc2c1 | > 100 | > 100 | > 100 | > 100 | > 100 | – | > 100 | > 100 | > 100 | > 100 | – | – | – | – | – | – | – | – | – | –
15 | Fc1cccc(C2SCc3nc4ccccc4n32)c1 (configuration not stated) | > 100 | – | – | > 100 | > 100 | > 100 | > 100 | > 100 | > 10 | > 100 | – | – | – | – | – | – | – | – | – | –
16 | Cc1cc(=O)[nH]c2c1C(=O)C(=O)C=C2 | > 100 | 60.9 | 63.4 | > 100 | > 100 | – | 37.4 | > 100 | > 100 | > 100 | 33.5 | > 100 | 23.8 | 31.7 | 36.4 | – | 19.4 | 39 | 64.1 | 25.6
17 | O=c1cc(/C=C/c2ccccc2)c2ccc(O/C(=C\c3ccccc3)c3nc4ccccc4c(=O)o3)cc2o1 | > 100 | 50.1 | > 100 | 61.7 | > 100 | – | > 100 | 60.3 | > 100 | – | – | – | – | – | – | – | – | – | – | –
18 | Cn1c(=O)ccc2cc(C(=O)c3ccccc3)ccc21 | > 100 | > 100 | > 100 | > 100 | 50.5 | – | > 100 | > 100 | > 100 | 54.3 | – | – | – | – | – | – | – | – | – | –
19 | N=C(N)c1ccc(-c2ccc(-c3ccccc3)o2)o1 | 16 | 3.4 | 14.5 | 6.73 | 3.82 | – | 14.2 | 8.21 | 11.4 | 4.12 | 1.6 | 4.3 | 1.62 | 2.56 | 1.93 | – | 3.4 | 2.89 | 3.32 | 3.48
20 | COc1ccc2c(c1)[n+](=O)c(C(=O)C/C(=N\NC(=O)C[N+](C)(C)C)C(=O)Nc1cc(Cl)ccc1Cl)c(C)n2O | – | > 100 | > 100 | > 100 | > 100 | > 100 | > 100 | > 100 | > 100 | > 100 | – | – | – | – | – | – | – | – | – | –
21 | Nc1nc(-c2ccccc2Cl)cc(-c2ccc(Cl)cc2Cl)n1 | 62.3 | > 100 | 89.7 | > 100 | 44.2 | > 100 | > 100 | 17.6 | 51 | – | – | 10.1 | 5.95 | 10.4 | 5.93 | 4.1 | 9.27 | 3.1 | 9.46 | 12.1
